We go through three molecules from patent US20230117606A1, “COMPOSITIONS AND METHODS FOR THE TREATMENT OF INTRACELLULAR BACTERIAL INFECTIONS” (Endolytix Technology, Inc., priority 2020, published 2023).

In the experiment the test system is M. abscessus. Briefly: Cell growth assay of M. abscessus with ABIα and antibiotic, Fractional Inhibitory Concentration (FIC) index. Conditions: antibiotic in combination with ABIα; FIG. 5. In kind it is cell-based, Mycobacterium abscessus.
In the case of `NCC[C@H](O)C(=O)N[C@@H]1C[C@H](N)[C@@H](O[C@H]2O[C@H](CN)[C@@H](O)[C@H](O)[C@H]2O)[C@H](O)[C@H]1O[C@H]1O[C@H](CO)[C@@H](O)[C@H](N)[C@H]1O` [amikacin], the “effect by FIC index on attenuation of M. abscessus growth” value is “synergistic effects”.
For `C[C@@H](O)[C@H]1C(=O)N2C(C(=O)[O-])=C(SC3Cn4cnc[n+]4C3)[C@H](C)[C@H]12` (stereo partly drawn) [biapenem], the “effect by FIC index on attenuation of M. abscessus growth” value is “synergistic effects”.
Under `CO[C@@]1(NC(=O)Cc2cccs2)C(=O)N2C(C(=O)O)=C(COC(N)=O)CS[C@@H]21` [cefoxitin] stands “synergistic effects”.
